# Test results: US12454564B2, “Compositions and methods for T cell engineering” (Gracell Biotechnologies (Shanghai) Co., Ltd., priority 2018, dated 2025)
# Entries after “also recorded” stand apart in the source; their conditions may differ.
# Experiments:
# Assay in all cases: gRNA knockout efficiency
# TCR = system: TCR
# Experimental: (§1) For gene editing, 3 μg Cas9 protein and 1.5 μg gRNA were mixed in 20 μl and incubated at 37° C. or room temperature for 15 minutes to form ribonucleoprotein (RNP). Then RNP was transfected into T cells by Lonza 4D Nucleofector®. Gene knockout efficiency was determined by the ratio of the cells expressing the protein as detected by flow cytometry (FACS).
# First, gRNA sequences targeting the exon of the TCR conserved region were designed at http://crispr.mit.edu, and two gRNA sequences with scores above 80 were selected for higher knockout efficiency. For the gRNA primer, the forward primer comprises a T7 promotor followed by 20 bp of the target sequence, and the reverse primer has 20 bp of the complementary sequence. Plasmids were used as PCR template. After purification, T7-PCR product was further used as the template for MEGAshortscript® T7 kit to obtain RNA. The RNA was purified with a MEGAclear® column and eluted with RNA-free water. Cas9 plasmid was purchased from Addgene.
# Meanwhile, the knockout efficiency of the gRNA was analyzed by T7E1, TIDE and flow cytometry.
# For gene editing, 3 μg Cas9 protein and 1.5 μg gRNA were mixed in 20 μl and incubated at 37° C. or room temperature for 15 minutes to form ribonucleoprotein (RNP). […] Gene knockout efficiency was determined by the ratio of the cells expressing the protein as detected by flow cytometry.
# CD7 = settings: used together with TRAC-gRNA1
# Experimental: as §1
# For gene editing, 3 μg Cas9 protein and 1.5 μg gRNA were mixed in 20 μl and incubated at 37° C. or room temperature for 15 minutes to form ribonucleoprotein (RNP). Then RNP was transfected into T cells by Lonza 4D Nucleofector®. Gene knockout efficiency was determined by the ratio of the cells expressing the protein as detected by flow cytometry.
# CD2 = type: cell-based
substance,measurement,setting,value
"TRAC-gRNA2: gRNA TCAGGGTTCTGGATATCTGT (SEQ ID NO 21) (listed as DNA, chemistry not given here)",knockout efficiency for TCR,TCR,high knockout efficiencies
"CD7-gRNA4: gRNA GGAGCAGGTGATGTTGACGG (SEQ ID NO 28) (listed as DNA, chemistry not given here)",CD7 knockout efficiency,CD7,obviously better
"CD2 gRNA2: gRNA GTGCCACAAAGACCATCAAG (SEQ ID NO 30) (listed as DNA, chemistry not given here)",CD2 knockout efficiency,CD2,the highest CD2 knockout efficiencies
"CD7-gRNA1: gRNA GAGGTCAATGTCTACGGCTC (SEQ ID NO 25) (listed as DNA, chemistry not given here)",CD7 knockout efficiency,CD7,high knockout efficiencies; also recorded: obviously better
